Source: patent US10336792B2, “Antimicrobial peptide dendrimers” (priority 2014, dated 2019)
Values after ≈ are worked out from the molar mass of the structure shown. Positions of bridges follow the written chain, without caps; N, C: chain ends. Residues, ends and D or L forms follow the SMILES beside them. Groups on a side chain read outwards from the residue. Chains are numbered I, II in the order given. *: point of attachment. Lauroyl = CCCCCCCCCCCC(=O)*

Legend:
[1] = test system: Bacillus subtilis (strain BR151); assay type: cell-based; settings: strain BR151
Summary of the method: (§1)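 Broth microdilution MIC in LB; overnight cultures diluted to OD600 0.001 and mixed 1:1 with ⅔-serially diluted samples (stock 1 mg mL^−1 in H2O), 37° C for 18-24 h. MTT (0.1%) added; MIC read by eye as lowest concentration inhibiting visible growth (yellow).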

[2] = test system: Pseudomonas aeruginosa (strain PA01); assay: microbe, parasite or virus in culture; assay type: cell-based; settings: strain
Summary of the method: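 P. aeruginosa PAO1 grown overnight in LB, diluted to OD600 0.001 and mixed with ⅔-step peptide dilutions, then incubated at 37 °C for 18–24 h. After MTT staining, the lowest concentration with no visible growth was read by eye as the MIC.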

male wistar rats = assay: In-vivo toxicity study, single i.v. injection; parameters: species or system rat
Excerpt: 4-6 weeks old male wistar rats (weight range 200-500 g) were used in toxicity experiments. Rats were obtained from Zentrale Tierställe Bern (Department of Clinical Research from University of Bern) and housed 4 per cage. Each experimental group includes two rats. All procedures, care and handling of the animals were reviewed and approved by the Veterinärdienst of Kanton Bern, Schweiz and execute in collaboration with the group of Prof. Hugues Abriel from Department of Clinical Research from University of Bern.
Rats were anesthetized with 4% isoflurane and 1 L/min oxygen in an induction chamber. When the rats were sleeping they were transferred on a clinical drape and anesthetized with 1-2% isoflurane and 0.8 l/min oxygen via a mask. The tail was warmed up with warm water and disinfected with 70% ethanol. The intravenous (i.v.) injections into the tail vein included a single dose of the AMPD of 2 mg/kg rat in 500 μL PBS. Before injection each rat was weighted individually and the exact dosage was determined. All rats, including control groups with no injection and i.v. injection of 500 μL PBS, were monitored for their survival and behavior for two days.
The compounds MSt-112, a 3rd generation AMPD with KL motive, MSt-181 its D-enantiomer analogue, MSt-242, a the 3rd generation with RL motive, and MSt-114 with Tyr instead of Lys in the 3rd generation were used for in vivo experiments with male wistar rats to assess their toxicity. These compounds were selected due to their high potencies and high MHCs values, which are at least 10 times higher than their activities. Each compound (concentration of 2 mg/kg) was applied to two rats by intravenous injection into the tail vein to observe if the AMPDs are well tolerated or may cause adverse effects. The concentration used was approx. 5-10 times higher than the MICs. […] The behaviour of the rats was normal. […] Therefore it seems that rats tolerate AMPDs very well, without visible site effects or even casualties.

[3] = test system: Escherichia coli (strain DH5α); assay type: cell-based; settings: DH5α
Summary of the method: as §1

[4] = test system: Staphylococcus aureus (COL, MRSA reference strain); assay type: cell-based; settings: COL, reference strain
Protocol: Antimicrobial activity was assayed against P. aeruginosa PA01 (WT), P. aeruginosa PT1482 (A-), PT1485 (A-B-), PT1149 (A-B-C-algC), PT331 (Z61) (LPS mutants), P. aeruginosa PEJ2.6, PEJ9.1, ZEM1.A, ZEM9.A (clinical isolates from Université de Genève/Centre Médical Universitaire), Burkholderia cenocepacia (B. ceno), Staphylococcus aureus (S. aureus, MRSA strain) and Acinetobacter baumannii (A. baum) (clinical isolates from Université de Genève/Centre Médical Universitaire). To determine the minimal inhibitory concentration (MIC), microdilution broth method was used. A colony of bacteria was grown in MH-medium overnight at 37° C. The samples were prepared as stock solutions of 8 mg mL^−1 in H2O, diluted to the beginning concentration of 32, 64, 128 or 256 μg/mL in 300 μL MH-medium, added to the first well of 96-well microtiterplate (TPP, untreated) and diluted serially by ½. The concentration of the bacteria was quantified by measuring absorbance at 600 nm and diluted to OD600=0.022 in MH-medium. The sample solutions (150 μL) were mixed with 4 μL diluted bacterial suspension with a final inoculation of about of 5×10^5 CFU. The plates were incubated at 37° C. until satisfactory growth (˜18 h). For each test, two columns of the plate were kept for sterility control (SC, broth only) and growth control (GC, broth with bacterial inoculums, no antibiotics). The minimal inhibitory concentration (MIC) was defined as the lowest concentration of the antimicrobial substance (peptide dendrimer) that inhibited visible growth of the tested bacteria with the unaided eye. For microbiological study Polymyxin was used as references.
Ten of the most promising compounds (FIG. 5) were tested for their efficiency against four clinical isolates of P. aeruginosa (ZEM9.A, ZEM1.A, PEJ2.6, PEJ9.1), one S. aureus (COL, MRSA reference strain) and one A. baumannii strain. For the experiments in Genève the peptide dendrimers and reference compounds (polymyxin) were dissolved in PBS and the assay was carried out in Müller-Hinton (MH) broth with a two-fold dilution.

Row | SMILES | MIC B. subtilis BR151 [1] | MIC P. aeruginosa PAO1 [2] | visible effects and behaviour after injection (male wistar rats; 2 mg/kg single i.v. dose into tail vein, two rats) | survival rate (male wistar rats; 2 mg/kg single i.v. dose, monitored 2 days) | MIC E. coli DH5α [3] | MIC S. aureus (COL, MRSA reference strain) [4]
1 | CC(C)C[C@H](NC(=O)[C@H](CCCCN)NC(=O)[C@H](CCCCNC(=O)[C@H](CC(C)C)NC(=O)[C@H](CCCCN)NC(=O)[C@H](CCCCNC(=O)[C@H](CC(C)C)NC(=O)[C@H](CCCCN)NC(=O)[C@H](CCCCNC(=O)[C@H](Cc1ccc(O)cc1)NC(=O)[C@@H](N)CCCCN)NC(=O)[C@H](Cc1ccc(O)cc1)NC(=O)[C@@H](N)CCCCN)NC(=O)[C@H](CC(C)C)NC(=O)[C@H](CCCCN)NC(=O)[C@H](CCCCNC(=O)[C@H](Cc1ccc(O)cc1)NC(=O)[C@@H](N)CCCCN)NC(=O)[C@H](Cc1ccc(O)cc1)NC(=O)[C@@H](N)CCCCN)NC(=O)[C@H](CC(C)C)NC(=O)[C@H](CCCCN)NC(=O)[C@H](CCCCNC(=O)[C@H](CC(C)C)NC(=O)[C@H](CCCCN)NC(=O)[C@H](CCCCNC(=O)[C@H](Cc1ccc(O)cc1)NC(=O)[C@@H](N)CCCCN)NC(=O)[C@H](Cc1ccc(O)cc1)NC(=O)[C@@H](N)CCCCN)NC(=O)[C@H](CC(C)C)NC(=O)[C@H](CCCCN)NC(=O)[C@H](CCCCNC(=O)[C@H](Cc1ccc(O)cc1)NC(=O)[C@@H](N)CCCCN)NC(=O)[C@H](Cc1ccc(O)cc1)NC(=O)[C@@H](N)CCCCN)C(N)=O [MSt-114, (KY)8(KKL)4(KKL)2(KKL)] (I: H-KYK([Tyr-Lys])KLKKLKKL-NH2 / II: H-KYK([Tyr-Lys])KLKKL / III: H-KYK([Tyr-Lys])KL / IV: H-KYK([Tyr-Lys])KL; amide I:6-IV:C, I:9-II:C, II:6-III:C) | 13 mg/L (≈ 2.63 µM) | 2 mg/L (≈ 0.405 µM) | slightly bluish extremities which subsided after approx. 5 min | 100% |  | 
2 | CCCCCCCCCCCC(=O)NCCCC[C@H](NC(=O)[C@H](CC(C)C)NC(=O)[C@H](CCCCN)NC(=O)[C@H](CCCCNC(=O)[C@H](CC(C)C)NC(=O)[C@H](CCCCN)NC(=O)[C@H](CCCCNC(=O)[C@H](CC(C)C)NC(=O)[C@@H](N)CCCCN)NC(=O)[C@H](CC(C)C)NC(=O)[C@@H](N)CCCCN)NC(=O)[C@H](CC(C)C)NC(=O)[C@H](CCCCN)NC(=O)[C@H](CCCCNC(=O)[C@H](CC(C)C)NC(=O)[C@@H](N)CCCCN)NC(=O)[C@H](CC(C)C)NC(=O)[C@@H](N)CCCCN)C(N)=O [MSt-263, (KL)4(KKL)2(KKLKC12)] (I: H-KLK([Leu-Lys])KLKKLK(Lauroyl)-NH2 / II: H-KLK([Leu-Lys])KL; amide I:6-II:C) | 2 mg/L (≈ 0.833 µM) | 1 mg/L (≈ 0.416 µM) |  |  | 1 mg/L (≈ 0.416 µM) | below 20 μg/mL
